Laboratory results: patent publication US12723063B2, “GIPR-agonist compounds” (Eli Lilly and Company, priority 2019, dated 2026)
*1 amine or outer side, *2 acyl side, *3 side chain or, on linkers, in order; H or OH if unused. Where a SMILES comes first, the peptide text is derived from it. Side-chain parts run from the residue outwards. [ ]: non-standard residue; d: D form. The star is where a group is joined. C20 diacid = O=C(O)CCCCCCCCCCCCCCCCCCC(=O)*; C18 diacid = O=C(O)CCCCCCCCCCCCCCCCC(=O)*; αMePhe(2-F) = C[C@](N)(Cc1ccccc1F)C(=O)O; γGlu = O=C(O)[C@H](CCC(=O)[*:2])N[*:1]; αMeF = C[C@](N)(Cc1ccccc1)C(=O)O; AEEA = NCCOCCOCC(=O)O; Aib = CC(C)(N)C(=O)O

Columns and labels:
human GIPR = target: T1, human GIPR (Homo sapiens, UniProt P48546); experiment: [125I]-GIP binding, SPA with WGA beads, 0.1% bacitracin; conditions: geometric mean, read-out: hGIPR Ki
T1 construct: expressed in transfected cells; crude membranes
T1 sequence (P48546 22-466): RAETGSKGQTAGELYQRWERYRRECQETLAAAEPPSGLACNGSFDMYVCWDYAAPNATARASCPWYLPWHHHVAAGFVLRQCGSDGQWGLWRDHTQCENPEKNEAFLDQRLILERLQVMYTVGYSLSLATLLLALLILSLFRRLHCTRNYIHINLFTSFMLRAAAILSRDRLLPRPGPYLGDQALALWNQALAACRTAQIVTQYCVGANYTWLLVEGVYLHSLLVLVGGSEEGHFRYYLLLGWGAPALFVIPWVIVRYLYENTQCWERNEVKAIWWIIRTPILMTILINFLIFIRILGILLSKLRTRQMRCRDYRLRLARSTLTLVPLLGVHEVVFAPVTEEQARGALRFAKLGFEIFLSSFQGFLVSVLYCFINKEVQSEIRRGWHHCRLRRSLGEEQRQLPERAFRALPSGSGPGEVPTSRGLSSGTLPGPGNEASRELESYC
Summary of the method: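 Ki values are geometric means (SEM, n independent days), derived from four-parameter nonlinear regression of IC50. Membranes came from hGIPR-expressing CHO cells.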

[1] = target: T2, human GLP-1 receptor (GLP-1R) (Homo sapiens, UniProt P43220); experiment: cAMP functional assay (HTRF) in HEK293 cells in presence of 0.1% casein; assay type: cell-based; conditions: HEK293 cells expressing human GLP-1R, geometric mean, read-out: hGLP1R cAMP Rel EC50 nM (SEM, n)
T2 construct: expressed in transfected cells; host or cells: HEK293
T2 sequence (P43220 24-463): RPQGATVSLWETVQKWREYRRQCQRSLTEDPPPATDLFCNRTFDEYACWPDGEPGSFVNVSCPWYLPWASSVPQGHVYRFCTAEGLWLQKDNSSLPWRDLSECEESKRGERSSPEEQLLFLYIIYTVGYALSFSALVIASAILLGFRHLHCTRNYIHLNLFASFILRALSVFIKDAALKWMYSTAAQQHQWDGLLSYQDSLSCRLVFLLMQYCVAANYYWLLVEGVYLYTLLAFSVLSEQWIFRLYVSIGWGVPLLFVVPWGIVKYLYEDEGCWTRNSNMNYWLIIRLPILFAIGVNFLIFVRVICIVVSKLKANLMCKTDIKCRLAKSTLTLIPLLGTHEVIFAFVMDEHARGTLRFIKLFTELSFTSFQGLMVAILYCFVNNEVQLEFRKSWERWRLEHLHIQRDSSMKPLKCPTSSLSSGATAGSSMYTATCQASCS

SMILES	Ki (human GIPR)	EC50 [1]
CC[C@H](C)[C@H](NC(=O)[C@H](Cc1ccccc1)NC(=O)[C@@H](NC(=O)CNC(=O)[C@H](CCC(=O)O)NC(=O)C(C)(C)NC(=O)[C@@H](N)Cc1ccc(O)cc1)[C@@H](C)O)C(=O)N[C@@H](CO)C(=O)N[C@@H](CC(=O)O)C(=O)N[C@@H](Cc1ccc(O)cc1)C(=O)N[C@@H](CO)C(=O)N[C@H](C(=O)NC(C)(C)C(=O)N[C@@H](CC(C)C)C(=O)N[C@@H](CC(=O)O)C(=O)N[C@@H](CCCCN)C(=O)N[C@@H](CCCCNC(=O)COCCOCCNC(=O)COCCOCCNC(=O)CC[C@H](NC(=O)CCCCCCCCCCCCCCCCC(=O)O)C(=O)O)C(=O)N[C@@H](Cc1c[nH]cn1)C(=O)N[C@@H](CCC(N)=O)C(=O)NC(C)(C)C(=O)N[C@@H](CC(=O)O)C(=O)N[C@@H](Cc1ccccc1)C(=O)N[C@H](C(=O)N[C@@H](CCC(=O)O)C(=O)N[C@@H](Cc1ccncc1)C(=O)N[C@@H](CC(C)C)C(=O)N[C@@H](CC(C)C)C(=O)N[C@@H](C)C(=O)NCC(=O)NCC(=O)N1CCC[C@H]1C(=O)N[C@@H](CO)C(=O)N[C@@H](CO)C(=O)NCC(=O)N[C@@H](C)C(=O)N1CCC[C@H]1C(=O)N1CCC[C@H]1C(=O)N1CCC[C@H]1C(=O)N[C@@H](CO)C(N)=O)C(C)C)[C@@H](C)CC [Example 24]	0.254 nM	> 5000 nM
CC[C@H](C)[C@H](NC(=O)[C@H](CO)NC(=O)[C@H](Cc1ccc(O)cc1)NC(=O)[C@H](CC(=O)O)NC(=O)[C@H](CO)NC(=O)[C@@H](NC(=O)[C@](C)(Cc1ccccc1)NC(=O)[C@@H](NC(=O)CNC(=O)[C@H](CCC(=O)O)NC(=O)C(C)(C)NC(=O)[C@@H](N)Cc1ccc(O)cc1)[C@@H](C)O)[C@@H](C)CC)C(=O)N[C@@H](C)C(=O)N[C@@H](CC(C)C)C(=O)N[C@@H](CC(=O)O)C(=O)N[C@@H](CCCCN)C(=O)N[C@@H](CCCCNC(=O)COCCOCCNC(=O)COCCOCCNC(=O)CC[C@H](NC(=O)CCCCCCCCCCCCCCCCCCC(=O)O)C(=O)O)C(=O)N[C@@H](Cc1c[nH]cn1)C(=O)N[C@@H](CCC(N)=O)C(=O)NC(C)(C)C(=O)N[C@@H](CCC(=O)O)C(=O)N[C@@H](Cc1ccccc1)C(=O)N[C@H](C(=O)N[C@@H](CC(N)=O)C(=O)N[C@@H](Cc1c[nH]c2ccccc12)C(=O)N[C@@H](CC(C)C)C(=O)N[C@@H](CC(C)C)C(=O)N[C@@H](C)C(=O)NCC(=O)NCC(=O)N1CCC[C@H]1C(=O)N[C@@H](CO)C(=O)N[C@@H](CO)C(=O)NCC(=O)N[C@@H](C)C(=O)N1CCC[C@H]1C(=O)N1CCC[C@H]1C(=O)N1CCC[C@H]1C(=O)N[C@@H](CO)C(N)=O)C(C)C [Example 25] (H-Y[Aib]EGT[αMeF]ISDYSIALDKK([AEEA-AEEA-γGlu-C20 diacid])HQ[Aib]EFVNWLLAGGPSSGAPPPS-NH2)	0.0417 nM	8.39 nM
CC[C@H](C)[C@H](NC(=O)[C@H](CO)NC(=O)[C@H](Cc1ccc(O)cc1)NC(=O)[C@H](CC(=O)O)NC(=O)[C@H](CO)NC(=O)[C@@H](NC(=O)[C@](C)(Cc1ccccc1F)NC(=O)[C@@H](NC(=O)CNC(=O)[C@H](CCC(=O)O)NC(=O)C(C)(C)NC(=O)[C@@H](N)Cc1ccc(O)cc1)[C@@H](C)O)[C@@H](C)CC)C(=O)N[C@@H](C)C(=O)N[C@@H](CC(C)C)C(=O)N[C@@H](CC(=O)O)C(=O)N[C@@H](CCCCN)C(=O)N[C@@H](CCCCNC(=O)COCCOCCNC(=O)COCCOCCNC(=O)CC[C@H](NC(=O)CCCCCCCCCCCCCCCCCCC(=O)O)C(=O)O)C(=O)N[C@@H](Cc1c[nH]cn1)C(=O)N[C@@H](CCC(N)=O)C(=O)NC(C)(C)C(=O)N[C@@H](CCC(=O)O)C(=O)N[C@@H](Cc1ccccc1)C(=O)N[C@H](C(=O)N[C@@H](CC(N)=O)C(=O)N[C@@H](Cc1c[nH]c2ccccc12)C(=O)N[C@@H](CC(C)C)C(=O)N[C@@H](CC(C)C)C(=O)N[C@@H](C)C(=O)NCC(=O)NCC(=O)N1CCC[C@H]1C(=O)N[C@@H](CO)C(=O)N[C@@H](CO)C(=O)NCC(=O)N[C@@H](C)C(=O)N1CCC[C@H]1C(=O)N1CCC[C@H]1C(=O)N1CCC[C@H]1C(=O)N[C@@H](CO)C(N)=O)C(C)C [Example 26] (H-Y[Aib]EGT[αMePhe(2-F)]ISDYSIALDKK([AEEA-AEEA-γGlu-C20 diacid])HQ[Aib]EFVNWLLAGGPSSGAPPPS-NH2)	0.045 nM	5.69 nM
CC[C@H](C)[C@H](NC(=O)[C@H](CO)NC(=O)[C@H](Cc1ccc(O)cc1)NC(=O)[C@H](CC(=O)O)NC(=O)[C@H](CO)NC(=O)[C@@H](NC(=O)[C@H](Cc1ccccc1)NC(=O)[C@@H](NC(=O)CNC(=O)[C@H](CCC(=O)O)NC(=O)[C@@H](C)NC(=O)[C@@H](N)Cc1ccc(O)cc1)[C@@H](C)O)[C@@H](C)CC)C(=O)N[C@@H](CC(C)C)C(=O)N[C@@H](CC(C)C)C(=O)N[C@@H](CC(=O)O)C(=O)N[C@@H](CCCCN)C(=O)N[C@@H](CCCCNC(=O)COCCOCCNC(=O)COCCOCCNC(=O)CC[C@H](NC(=O)CCCCCCCCCCCCCCCCC(=O)O)C(=O)O)C(=O)N[C@@H](C)C(=O)N[C@@H](CCC(N)=O)C(=O)NC(C)(C)C(=O)N[C@@H](CCC(=O)O)C(=O)N[C@@H](Cc1ccccc1)C(=O)N[C@H](C(=O)N[C@@H](CCC(N)=O)C(=O)N[C@@H](Cc1c[nH]c2ccccc12)C(=O)N[C@@H](CC(C)C)C(=O)N[C@@H](CC(C)C)C(=O)N[C@@H](C)C(=O)NCC(=O)NCC(=O)N1CCC[C@H]1C(=O)N[C@@H](CO)C(=O)N[C@@H](CO)C(=O)NCC(=O)N[C@@H](C)C(=O)N1CCC[C@H]1C(=O)N1CCC[C@H]1C(=O)N1CCC[C@H]1C(=O)N[C@@H](CO)C(N)=O)C(C)C [Example 27] (H-Y[dA]EGTFISDYSILLDKK([AEEA-AEEA-γGlu-C18 diacid])AQ[Aib]EFVQWLLAGGPSSGAPPPS-NH2)	0.0354 nM	> 5000 nM
CC[C@H](C)[C@H](NC(=O)[C@H](CO)NC(=O)[C@H](Cc1ccc(O)cc1)NC(=O)[C@H](CC(=O)O)NC(=O)[C@H](CO)NC(=O)[C@@H](NC(=O)[C@H](Cc1ccccc1)NC(=O)[C@@H](NC(=O)CNC(=O)[C@H](CCC(=O)O)NC(=O)[C@@H](C)NC(=O)[C@@H](N)Cc1ccc(O)cc1)[C@@H](C)O)[C@@H](C)CC)C(=O)N[C@@H](CC(C)C)C(=O)N[C@@H](CC(C)C)C(=O)N[C@@H](CC(=O)O)C(=O)N[C@@H](CCCCN)C(=O)N[C@@H](CCCCNC(=O)COCCOCCNC(=O)COCCOCCNC(=O)CC[C@H](NC(=O)CCCCCCCCCCCCCCCCC(=O)O)C(=O)O)C(=O)N[C@@H](C)C(=O)N[C@@H](CCC(N)=O)C(=O)NC(C)(C)C(=O)N[C@@H](CCC(=O)O)C(=O)N[C@@H](Cc1ccccc1)C(=O)N[C@H](C(=O)N[C@@H](CC(N)=O)C(=O)N[C@@H](Cc1c[nH]c2ccccc12)C(=O)N[C@@H](CC(C)C)C(=O)N[C@@H](CC(C)C)C(=O)N[C@@H](CCC(=O)O)C(=O)NCC(=O)NCC(=O)N1CCC[C@H]1C(=O)N[C@@H](CO)C(=O)N[C@@H](CO)C(=O)NCC(=O)N[C@@H](C)C(=O)N1CCC[C@H]1C(=O)N1CCC[C@H]1C(=O)N1CCC[C@H]1C(=O)N[C@@H](CO)C(N)=O)C(C)C [Example 28] (H-Y[dA]EGTFISDYSILLDKK([AEEA-AEEA-γGlu-C18 diacid])AQ[Aib]EFVNWLLEGGPSSGAPPPS-NH2)	0.0732 nM	> 5000 nM
